According to publication PMC8922279, “Identification of β-Lactams Active against Mycobacterium tuberculosis by a Consortium of Pharmaceutical Companies and Academic Institutions” (ACS Infectious Diseases, 2022):

What was measured:
[1] = female, 129sv DHP-1 knockout, mouse, in vivo
[2] = in vivo; conditions: female, 129sv DHP-1 knockout, mouse, sc, 50 mg/kg
[3] = tested on: wild-type Mtb H37Rv; assay type: in vivo, 129sv DHP-1 knockout mice
[4] = In vitro plasma stability, cynomolgus monkey plasma; conditions: 2 μM, 37 °C, time point 120 min
[5] = tested on: Mtb H37Rv; test: MIC90 against replicating (R) Mtb H37Rv, with or without clavulanate; assay type: cell-based, Mycobacterium tuberculosis; conditions: Table S4; for Mtb H37Rv R + CLAV (MIC90): clavulanate 4 μg/mL; for Mtb H37Rv R (MIC90): no clavulanate
[6] = tested on: S. aureus; test: Microbial spectrum, S. aureus; assay type: cell-based, Staphylococcus aureus; conditions: clavulanate 4 μg/mL; Table S4
[7] = tested on: plasma proteins; test: Plasma protein binding (equilibrium dialysis), beagle dog; conditions: 2 μM
[8] = tested on: E. coli; test: Microbial spectrum, E. coli; assay type: cell-based, Escherichia coli; conditions: clavulanate 4 μg/mL; Table S4
[9] = tested on: C. albicans; test: Microbial spectrum, C. albicans; assay type: cell-based, Candida albicans; conditions: no clavulanate; Table S4
[10] = tested on: P. aeruginosa; test: Microbial spectrum, P. aeruginosa; assay type: cell-based, Pseudomonas aeruginosa; conditions: clavulanate 4 μg/mL; Table S4
[11] = tested on: Mtb H37Rv; test: MIC90 against nonreplicating (NR, 4-stress) Mtb H37Rv, with or without clavulanate; assay type: cell-based, Mycobacterium tuberculosis; conditions: 4-stress nonreplicating, Table S4; for Mtb H37Rv NR + CLAV (MIC90): clavulanate 4 μg/mL; for Mtb H37Rv NR (MIC90): no clavulanate
[12] = In vitro plasma stability, beagle dog plasma; conditions: 2 μM, 37 °C, time point 120 min
[13] = In vitro plasma stability, SD rat plasma; conditions: 2 μM, 37 °C, time point 120 min
[14] = Stability in fasted simulated intestinal fluid (FaSSIF); conditions: 10 μM, pH 6.5, room temperature
[15] = tested on: plasma proteins; test: Plasma protein binding (equilibrium dialysis), SD rat; conditions: 2 μM
[16] = tested on: Caco-2 cells; test: Caco-2 permeability / efflux transporter substrate; conditions: for Caco-2 Mean Papp A to B / Caco-2 Mean Papp B to A: 3 μM, pH 7.4, 120 min
[17] = tested on: plasma proteins; test: Plasma protein binding (equilibrium dialysis), cynomolgus monkey; conditions: 2 μM
[18] = Mouse PK in uninfected CD-1 mice (i.v. and p.o.); conditions: i.v. dosing (5 mg/kg)
[19] = In vitro plasma stability, CD-1 mouse plasma; conditions: 2 μM, 37 °C, time point 120 min
[20] = tested on: plasma proteins; test: Plasma protein binding (equilibrium dialysis), human; conditions: 2 μM
[21] = In vitro plasma stability, human plasma; conditions: 2 μM, 37 °C, time point 120 min
[22] = tested on: plasma proteins; test: Plasma protein binding (equilibrium dialysis), CD-1 mouse; conditions: 2 μM
[23] = Stability in simulated gastric fluid (SGF); conditions: 10 μM, pH 1.2, room temperature

SMILES: C=CC1=C(C(=O)O)N2C(=O)[C@@H](NC(=O)/C(=N\O)c3csc(N)n3)[C@H]2SC1 [Cefdinir, reference compound]
- Tlast [1]: 1.0 h
- AUC(0-t) [2]: 4630 ng·h/mL
- Cmax [2]: 8730 ng/mL
- Tmax [2]: 30 min
- Log10 CFU per mouse (lungs), Mean ([3]; 50 mg/kg sc bid + clavulanate 100 mg/kg po bid, days 9-15, lungs day 16, untreated day 16 mean 9.1): 8.5 Log10 CFU
- effect on lung CFU (in words) ([3]; mouse, in vivo): lower lung CFU count compared to untreated mice

SMILES: O=C(O)C1=C(CSc2cccc[n+]2[O-])CS[C@@H]2[C@H](NC(=O)C(F)c3ccccc3)C(=O)N12 (some centres unmarked) [TBBL-0000004]
- Plasma stability % Remaining, Monkey [4]: 103.9%
- Mtb H37Rv R + CLAV (MIC90) [5]: 1.5 µM
- Mtb H37Rv R (MIC90) [5]: 1.2 µM
- S.aureus R + CLAV (MIC90) [6]: 1.4 µM
- % bound to plasma, Beagle Dog [7]: 59.2%
- E.coli R + CLAV (MIC90) [8]: > 100 µM
- C.albicans R (MIC90) [9]: > 100 µM
- P.aeruginosa R + CLAV (MIC90) [10]: > 100 µM
- Mtb H37Rv NR + CLAV (MIC90) [11]: 2.3 µM
- Mtb H37Rv NR (MIC90) [11]: 1.7 µM
- Plasma stability % Remaining, Dog [12]: 64.1%
- Plasma stability % Remaining, Rat [13]: 71.0%
- FaSSIF Stability, % remaining, 6h [14]: 88.58%
- FaSSIF Stability, % remaining, 24h [14]: 94.96%
- % bound to plasma, SD Rat [15]: 62.0%
- Caco-2 Mean Papp A to B [16]: < 0.12 10-6 cm/s
- Caco-2 Mean Papp B to A [16]: < 0.11 10-6 cm/s
- Caco-2 Mean Recovery % A to B ([16]; Caco-2): < 98.09%
- Caco-2 Mean Recovery % B to A ([16]; Caco-2): < 112.70%
- Caco-2 Rank Papp ([16]; Caco-2): Low
- % bound to plasma, Cynomolgus Monkey [17]: 78.2%
- AUC[0-5h] [18]: 5075 ng·h/mL
- Vd [18]: 1.02 L/kg
- clearance [18]: 16.4 mL/min/kg
- half-life [18]: 32.4 min
- k el [18]: 0.96 h⁻¹
- Plasma stability % Remaining, Mouse [19]: 84.1%
- % bound to plasma, Human [20]: 74.1%
- Plasma stability % Remaining, Human [21]: 81.0%
- % bound to plasma, CD-1 Mouse [22]: 65.5%

SMILES: Cn1nnnc1SCC1=C(C(=O)O)N2C(=O)[C@@H](NC(=O)Cc3ccc(C4=NCCCN4)cc3)[C@H]2SC1 [TBBL-0000309]
- Plasma stability % Remaining, Monkey [4]: 104.7%
- Mtb H37Rv R + CLAV (MIC90) [5]: 0.7 µM
- Mtb H37Rv R (MIC90) [5]: 29.6 µM
- S.aureus R + CLAV (MIC90) [6]: 1.8 µM
- % bound to plasma, Beagle Dog [7]: 0.0%
- E.coli R + CLAV (MIC90) [8]: 20.6 µM
- C.albicans R (MIC90) [9]: > 100 µM
- P.aeruginosa R + CLAV (MIC90) [10]: > 100 µM
- Mtb H37Rv NR + CLAV (MIC90) [11]: > 100 µM
- Mtb H37Rv NR (MIC90) [11]: > 100 µM
- Plasma stability % Remaining, Dog [12]: 77.8%
- Plasma stability % Remaining, Rat [13]: 79.8%
- FaSSIF Stability, % remaining, 6h [14]: 95.78%
- FaSSIF Stability, % remaining, 24h [14]: 77.15%
- % bound to plasma, SD Rat [15]: 38.2%
- SGF Stability, % remaining, 1h ([23]; 1 h): 103.51%
- SGF Stability, % remaining, 24h ([23]; 24 h): 60.13%
- Caco-2 Mean Papp A to B [16]: 0.18 10-6 cm/s
- Caco-2 Mean Papp B to A [16]: 0.38 10-6 cm/s
- Caco-2 Efflux Ratio ([16]; Caco-2): 2.12
- Caco-2 Mean Recovery % A to B ([16]; Caco-2): 99.65%
- Caco-2 Mean Recovery % B to A ([16]; Caco-2): 104.93%
- Caco-2 Rank Papp ([16]; Caco-2): Low
- Efflux Transporter Substrate ([16]; Caco-2): Likely
- % bound to plasma, Cynomolgus Monkey [17]: 29.4%
- Plasma stability % Remaining, Mouse [19]: 68.8%
- % bound to plasma, Human [20]: 24.6%
- Plasma stability % Remaining, Human [21]: 79.0%
- % bound to plasma, CD-1 Mouse [22]: 4.1%
